Source: patent publication US10101331B2, “Methods of evaluating patients using E-cadherin or vimentin” (AGIOS PHARMACEUTICALS, INC, priority 2012, dated 2018)
Entries after “also recorded” stand apart in the source; their conditions may differ.

What was measured:
Type in all cases: cell-based
A427 = assay: 72 hr proliferation assay using CellTiter-Glo in 96-well format; conditions: 72 hr treatment
Description: (§1) FIGS. 8A-8C depict the GLS1 dependence in selected cancer cell lines. FIG. 8A depicts a western blot analysis of GLS1 and GLS2 protein levels in indicated cell lines. KGA and GAC alternative splice variants are indicated.
(§2) Proc of the National Academy of Sciences 109, 1092 (2012); McBryant Supra; DeLaBarre, Supra). […] This loop differs in primary sequence between GLS1 and GLS2, thereby explaining the differential response of the two isoforms.

MDA-MB-231 = assay: as above; conditions: 72 hr treatment
Description: as §1, §2

HepG2 = assay: as above; conditions: 72 hr treatment
Description: as §1, §2

HUH7 = assay: as above; conditions: 72 hr treatment
Description: as §1, §2

PC3 = assay: as above; conditions: 72 hr treatment
Description: as §1, §2

HCT116 = assay: as above; conditions: 72 hr treatment
Description: as §1, §2

CAKI-1 = assay: as above; conditions: 72 hr treatment
Description: as §1, §2

SKBR3 = assay: as above; conditions: 72 hr treatment
Description: as §1, §2

[1] = tested on: panel of 62 lung cancer cell lines; assay: Lung cancer cell line panel screened for sensitivity to BPTES, whole panel
Description: Of these, 44 of the cell lines have been classified as non-small cell lung cancer (NSCLC). […] Four of the top 25 transcriptional/cellular pathways were related to the epithelial-mesenchymal transition (EMT) (ranks 1, 15, 23, 25 of FIG. 2). […] Low E-cadherin/high vimentin are well-defined markers of cells that have a mesenchymal phenotype as characterized for example, in any one of the following references: (Yauch et al., (2005) Cin Cancer Res 11:24; Savagner et al., (2010) Ann Oncol. 21(suppl 7): vii89; Thiery et al., (2002) Nature Reviews Cancer June vol 2:442).

MDA-MB-231 cells [2] = assay: 72 hr proliferation assay in lines stably expressing empty vector, GAC or GAC-BR
Procedure: (§3) MDA-MB-231 cell lines stably expressing empty vector control (Con), wild-type GAC (GAC), or a BPTES-resistant GAC enzyme (GAC-BR) were treated with indicated concentrations of drugs in a 72 hr proliferation assay. […] Calculated p-values from student t-test, * (3×10^−5), **(7×10^−10), ^#(3×10^−5), ^##(5×10^−7).
Levels of overexpression of the GAC WT and GAC-BR mutant were approximately 1.5-2.0 fold above endogenous GLS1 levels (FIG. 12).

NCI-H28 = assay: Mesothelioma cancer cell lines screened for sensitivity to BPTES; conditions: NCI-H28, among mesothelioma cancer cell lines
Description: The MET-5A cell line is a normal […] cell line.
Low E-cadherin/high vimentin are well-defined markers of cells that have a mesenchymal phenotype as characterized for example, in any one of the following references: (Yauch et al., (2005) Cin Cancer Res 11:24; Savagner et al., (2010) Ann Oncol. 21(suppl 7): vii89; Thiery et al., (2002) Nature Reviews Cancer June vol 2:442).

MDA-MB-231 cells [3] = assay: 13C(5)-Gln labeling of glutamate and aspartate, LC/MS; conditions: 1 hr drug pre-treatment, 2 hr 13C(5)-Gln labeling
Procedure: as §3
(§4) Several groups have shown that GLS inhibition leads to a decrease in cellular tricarboxylic acid cycle (TCA) intermediates downstream of GLS activity (P. Gao et al. Nature 458, 762 (2009); T. Cheng et al. Proceedings of the National Academy of Sciences 108, 8674 (2011)). Measurement of glutamate (the product of the glutaminase reaction) and aspartate (which derives both carbon and nitrogen from glutamate) are particularly sensitive readouts of glutaminase activity (FIG. 13). ^13C labeled carbon in cells pre-treated with drug was tracked for 1 hr, followed by a 2 hr ^13C(5)-Gln labeling period, via LC/MS.

A427 cells = assay: as above; conditions: 1 hr drug pre-treatment, 2 hr 13C(5)-Gln labeling
Procedure: A427 parent cells or lines stably expressing pLVX empty vector control (Con), wild-type GAC (GAC), or a BPTES-resistant GAC enzyme (GAC-BR) were treated with indicated concentrations of drugs in a 72 hr proliferation assay. […] Calculated p-values from student t-test, * (3×10^−8), **(10^−9), ^#(10^−7), ^##(2×10^−6).
as §4

O=C(Cc1ccccc1)Nc1nnc(CCSCCc2nnc(NC(=O)Cc3ccccc3)s2)s1 [BPTES]
response to BPTES treatment (A427): Maximum response | sensitivity to BPTES treatment (MDA-MB-231): modest sensitivity | sensitivity to BPTES treatment (HepG2): modest sensitivity | response to the compound (HUH7): minimal response | response to the compound (PC3): minimal response | response to the compound (HCT116): minimal response | sensitivity to BPTES treatment (CAKI-1): modest sensitivity | response to BPTES treatment (SKBR3): minimum effect; also recorded: minimal response | share of the 62 lines with significant sensitivity to BPTES (μ/μmax<0.6) [1]: Approximately 30% | sensitivity to BPTES (MDA-MB-231 cells [2]; MDA-MB-231 cells expressing empty vector or GAC-WT): retained significant sensitivity | sensitivity to BPTES (MDA-MB-231 cells [2]; MDA-MB-231 cells with stable overexpression of the GAC-BR mutant): rendered resistant | sensitivity to BPTES (NCI-H28): most sensitive | 13C label accumulation in glutamate and aspartate (MDA-MB-231 cells [3]): decreased label accumulation | 13C label accumulation in glutamate and aspartate (A427 cells): decreased label accumulation
